{"source": "patent US11692222B2", "about": "“Animal model of non-alcoholic liver disease and composition of diagnosis, prevention or treatment for non-alcoholic liver disease” (KOREA ADVANCED INSTITUTE OF SCIENCE AND TECHNOLOGY, priority 2018, dated 2023)", "key": {"[1]": {"system": "DKO mice (Pten−/−;Sav1−/−)", "assay": "MK-2206 treatment of 3-week-old DKO mice for 2 weeks (fatty liver)", "type": "in vivo, mouse", "settings": "66 mg/kg i.p. every other day for 2 weeks, vs vehicle", "protocol": "(§1) Adenovirus for overexpression of CRE, YAP5SA, TAZ4SA, or GFP (control) and AAV-saCas9-sgIrs2 or sgCtl in the mouse liver were injected into the tail vain of […], respectively. The mice were deprived of food for 16 hours at day 4 (YAP5SA, TAZ4SA, and GFP) or week 4 (CRE and GFP) after adenovirus injection. MK-2206 (Selleckchem; S1078) was prepared in 30% Captisol (CyDex Pharmaceuticals; RC-0C7) and administered to DKO mice by intraperitoneal injection at a dose of 66 mg/kg every other day for 2 weeks, beginning at 3 or 12 weeks of age.\nGiven the lack of treatments for NASH, the present inventors next asked whether pharmacological inhibition of AKT could ameliorate fatty liver and slow cancer progression in DKO mice. To this end, the present inventors administered the pan-AKT inhibitor MK-2206 (phase II clinical trials) intraperitoneally to 3-week-old DKO mice.\nFIGS. 8b to 8d are graphs of the result of liver-to-body weight ratio percentage, the analysis of liver enzymes in the serum, the qPCR analysis of lipogenesis-related gene expression in the liver of control (white bars) and MK-2206 (red bars), respectively."}, "[2]": {"system": "DKO mice (Pten−/−;Sav1−/−)", "assay": "MK-2206 treatment of 12-week-old DKO mice for 2 weeks (liver cancer)", "type": "in vivo, mouse", "protocol": "as §1\nFurther, to investigate the suppression of liver cancer, MK-2206 was injected to 12-week-old DKO mice that 80% of them had liver tumor (FIG. 1b). The graphs of FIG. 8f are the result of the result of liver-to-body weight ratio (F), liver tumor number and size (G), serum analysis (H) of the experiment shown in FIG. 8f. The graph representing the quantification analysis of Ki-67^+ hepatocytes of specimen is shown in FIG. 8h, and a graph representing the qPCR analysis of the expression of genes related to fibrosis (Acta2, desmin, and Tgfb), cell death or injury (Hmox1 and Gadd153), or inflammation (Tnfa) is shown in FIG. 8i."}, "[3]": {"settings": "12-week-old DKO mice, 2 weeks treatment, vs vehicle"}}}
{"molecule": "NC1(c2ccc(-c3nc4ccn5c(=O)[nH]nc5c4cc3-c3ccccc3)cc2)CCC1", "note": "[MK-2206]", "values": [{"measurement": "expression of lipogenesis-related genes (Fasn, Acc1, Srebp1c), qPCR in liver", "setting": "[1]", "result": "lower expression of lipogenesis-related genes"}, {"measurement": "fatty liver (macroscopic, H&E, Oil red O)", "setting": "[1]", "result": "less fatty liver"}, {"measurement": "liver fibrosis (Sirius red)", "setting": "[1]", "result": "reduced liver fibrosis"}, {"measurement": "liver function (liver enzymes in serum)", "setting": "[1]", "result": "improved liver function"}, {"measurement": "liver weight (liver-to-body weight ratio)", "setting": "[1]", "result": "decreased liver weight"}, {"measurement": "fatty liver and tumorigenesis", "setting": "[2]; 12-week-old DKO mice, 66 mg/kg i.p. every other day for 2 weeks, vs vehicle", "result": "reduced fatty liver and tumorigenesis"}, {"measurement": "Ki-67-positive cells", "setting": "[2]; [3]", "result": "fewer Ki-67-positive cells"}, {"measurement": "YAP expression (IHC)", "setting": "[2]; [3]", "result": "without a corresponding change in YAP expression"}, {"measurement": "expression of genes related to fibrosis (Acta2, desmin, Tgfb), cell death or injury (Hmox1, Gadd153) and inflammation (Tnfa), qPCR", "setting": "[2]; [3]", "result": "reduced expression of genes related to fibrosis"}, {"measurement": "fibrosis (Picrosirius red)", "setting": "[2]; [3]", "result": "reduced fibrosis"}, {"measurement": "hepatocyte TAZ expression (IHC)", "setting": "[2]; [3]", "result": "lower levels of hepatocyte TAZ expression"}, {"measurement": "hepatocytes with excessive lipid droplets (H&E)", "setting": "[2]; [3]", "result": "fewer hepatocytes with excessive lipid droplets"}, {"measurement": "liver color", "setting": "[2]; [3]", "result": "normalized liver color"}, {"measurement": "liver size (liver-to-body weight ratio)", "setting": "[2]; [3]", "result": "reduced liver size"}, {"measurement": "tumor nodule size", "setting": "[2]; [3]", "result": "reduction in tumor nodule size"}, {"measurement": "development of NAFLD and liver cancer in DKO mice", "setting": "[2]; overall conclusion, DKO mice treated from 3 or 12 weeks of age", "result": "markedly attenuates the development of NAFLD and liver cancer"}]}
